Data taken from EP0877740B1, “THIOL DERIVATIVES WITH METALLOPEPTIDASE INHIBITORY ACTIVITY” (ZAMBON GROUP S.p.A., priority 1995, dated 1997).
Read-outs that look alike come from different tables or passages of the source.

Molecular target: T1, ACE (Rattus norvegicus, UniProt P47820)
T1 construct: After the removal of the lungs from SHR, the lung tissue was homogenized; from tissue; host or cells: lung homogenate of spontaneously hypertensive rats (SHR)
T1 sequence (P47820 36-1313): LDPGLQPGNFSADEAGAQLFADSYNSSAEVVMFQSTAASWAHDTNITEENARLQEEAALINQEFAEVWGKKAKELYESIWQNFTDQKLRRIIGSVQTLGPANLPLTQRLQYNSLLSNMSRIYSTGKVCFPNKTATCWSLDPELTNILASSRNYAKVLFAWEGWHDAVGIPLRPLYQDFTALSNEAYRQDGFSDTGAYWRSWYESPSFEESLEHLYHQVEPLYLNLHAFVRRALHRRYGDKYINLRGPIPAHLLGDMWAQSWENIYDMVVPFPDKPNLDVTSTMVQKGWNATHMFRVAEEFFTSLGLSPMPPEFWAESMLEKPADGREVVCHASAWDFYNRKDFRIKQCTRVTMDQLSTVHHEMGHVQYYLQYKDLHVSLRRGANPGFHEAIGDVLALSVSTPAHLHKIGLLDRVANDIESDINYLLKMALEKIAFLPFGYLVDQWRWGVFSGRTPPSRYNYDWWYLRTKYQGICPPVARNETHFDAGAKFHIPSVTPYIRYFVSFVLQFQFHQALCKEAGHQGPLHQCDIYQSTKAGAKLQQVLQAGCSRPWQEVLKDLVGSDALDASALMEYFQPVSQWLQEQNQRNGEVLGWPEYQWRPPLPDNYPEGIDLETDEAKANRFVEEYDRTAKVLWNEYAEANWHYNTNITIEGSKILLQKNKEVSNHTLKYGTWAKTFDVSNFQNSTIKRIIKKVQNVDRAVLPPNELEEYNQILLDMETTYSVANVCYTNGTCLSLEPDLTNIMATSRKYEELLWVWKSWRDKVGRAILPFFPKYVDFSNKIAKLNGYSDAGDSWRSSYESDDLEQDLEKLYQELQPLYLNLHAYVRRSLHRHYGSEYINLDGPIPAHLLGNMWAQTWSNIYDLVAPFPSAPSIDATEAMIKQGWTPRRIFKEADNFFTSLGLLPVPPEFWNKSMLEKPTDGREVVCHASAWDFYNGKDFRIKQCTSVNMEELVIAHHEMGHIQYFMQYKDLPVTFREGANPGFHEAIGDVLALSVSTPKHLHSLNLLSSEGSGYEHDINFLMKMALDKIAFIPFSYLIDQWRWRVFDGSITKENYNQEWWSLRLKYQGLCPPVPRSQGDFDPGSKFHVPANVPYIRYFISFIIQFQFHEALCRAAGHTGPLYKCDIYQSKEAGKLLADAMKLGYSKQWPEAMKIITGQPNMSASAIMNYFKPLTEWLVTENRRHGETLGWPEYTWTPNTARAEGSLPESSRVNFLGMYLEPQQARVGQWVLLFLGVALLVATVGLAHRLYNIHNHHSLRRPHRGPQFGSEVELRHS
Assay: Ex vivo ACE-inhibitory activity in lung homogenates of treated SHR (radiometric, [3H]Hyp-Gly-Gly)
Design: species or system spontaneously hypertensive rats (SHR)
Conditions: SHR lungs; for inhibition at 30 µmol/kg: oral 30 µmoles/kg
Description: The ex-vivo ACE/NEP-inhibitory activity, in particular, was determined by evaluating the enzymatic activity in tissue homogenates (lung and kidney for ACE and NEP activity, respectively) from spontaneously hypertensive rats (SHR) treated with the tested compounds by intravenous or oral route.
The ex vivo ACE-inhibitory activity was evaluated by using a radiometric assay method, as reported in the literature by J. W. Ryan et al. in Biochem. J. (1977), 167, 501-504.
The inhibitory activity of the compounds of formula I was evaluated in lungs of spontaneously hypertensive rats (SHR), 5 minutes after i.v. injection (0.6 and 21 µmoles/kg) and 30 minutes, 60 minutes and 4 hours after oral administration (30 µmoles/kg) of the tested compounds.
After the removal of the lungs from SHR, the lung tissue was homogenized and incubated for 2 hours at 37°C in the presence of [^3H]Hyp-Gly-Gly, as a substrate.
The reaction was stopped by adding hydrochloric acid.
The released radiolabelled hyppuric acid was extracted with ethyl acetate and counted by liquid scintillation spectrometry, according to conventional methods.
The ACE-inhibitory activity of the tested compounds was expressed as percentage of ACE-inhibition in SHR lungs.

inhibition at 30 µmol/kg (30 minutes after administration, read-out: ACE-inhibition (lungs) 30 minutes): 60%
inhibition at 30 µmol/kg (60 minutes after administration, read-out: ACE-inhibition (lungs) 60 minutes): 36%
inhibition at 30 µmol/kg (4 hours after administration, read-out: ACE-inhibition (lungs) 4 hours): 45%
inhibition at 0.6 µmol/kg (iv, i.v. 0.6 µmoles/kg, 5 minutes after injection): 15%
inhibition at 21 µmol/kg (iv, i.v. 21 µmoles/kg, 5 minutes after injection): 72%
Compound: O=C(N[C@@H](Cc1ccc(-c2nccs2)cc1)C(=O)O)[C@@H](CS)Cc1ccccc1 [Compound 16, N-[(2S)-3-mercapto-2-phenylmethylpropionyl]-4-(2-thiazolyl)-L-phenylalanine]
